pIC50, pKi: −log10 of the molar value.
Experiments:
[1] = molecular target: Dipeptidyl peptidase 9 (Homo sapiens, UniProt Q86TI2); assay: Inhibition of human DPP89
[2] = molecular target: Dipeptidyl peptidase 8 (Homo sapiens, UniProt Q6V1X1); assay: Inhibition of human DPP8
[3] = molecular target: Cytochrome P450 3A4 (Homo sapiens, UniProt P08684); assay: inhibition of CYP3A4; format: ADME
[4] = molecular target: T1, Cytochrome P450 1A2 (Homo sapiens, UniProt P05177); assay: inhibition of CYP1A2; format: ADME
T1 sequence (P05177 whole entry): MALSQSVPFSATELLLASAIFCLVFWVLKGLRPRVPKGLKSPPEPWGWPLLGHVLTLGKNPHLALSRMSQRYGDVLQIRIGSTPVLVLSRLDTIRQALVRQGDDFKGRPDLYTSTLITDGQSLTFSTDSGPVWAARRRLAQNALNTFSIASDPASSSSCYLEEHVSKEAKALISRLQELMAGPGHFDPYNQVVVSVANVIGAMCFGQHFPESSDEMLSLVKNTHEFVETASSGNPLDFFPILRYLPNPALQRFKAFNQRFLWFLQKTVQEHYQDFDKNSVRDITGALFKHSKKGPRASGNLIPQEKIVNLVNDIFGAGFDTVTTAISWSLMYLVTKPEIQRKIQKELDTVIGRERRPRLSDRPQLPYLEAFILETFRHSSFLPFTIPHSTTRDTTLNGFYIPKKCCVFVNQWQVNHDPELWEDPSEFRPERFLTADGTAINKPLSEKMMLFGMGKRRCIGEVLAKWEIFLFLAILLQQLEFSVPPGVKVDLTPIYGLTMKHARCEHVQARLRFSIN

[5] = molecular target: Cytochrome P450 2C19 (Homo sapiens, UniProt P33261); assay: inhibition of CYP2C19; format: ADME
Sequence of Cytochrome P450 2C19 (P33261 whole entry): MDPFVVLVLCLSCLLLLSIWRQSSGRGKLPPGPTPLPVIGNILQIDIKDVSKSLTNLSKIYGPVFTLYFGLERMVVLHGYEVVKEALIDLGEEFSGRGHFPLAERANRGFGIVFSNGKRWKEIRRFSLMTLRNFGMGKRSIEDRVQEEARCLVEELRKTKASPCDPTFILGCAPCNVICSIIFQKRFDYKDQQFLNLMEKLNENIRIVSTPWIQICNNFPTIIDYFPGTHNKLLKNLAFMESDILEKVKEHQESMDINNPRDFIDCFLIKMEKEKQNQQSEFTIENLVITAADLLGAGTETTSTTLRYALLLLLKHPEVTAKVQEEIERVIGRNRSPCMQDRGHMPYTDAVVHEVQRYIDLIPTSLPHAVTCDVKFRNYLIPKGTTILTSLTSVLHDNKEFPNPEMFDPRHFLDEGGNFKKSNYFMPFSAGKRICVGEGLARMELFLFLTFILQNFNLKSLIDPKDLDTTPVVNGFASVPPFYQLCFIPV

[6] = molecular target: Cytochrome P450 2C9 (Homo sapiens, UniProt P11712); assay: inhibition of CYP2C9; format: ADME
Sequence of Cytochrome P450 2C9 (P11712 whole entry): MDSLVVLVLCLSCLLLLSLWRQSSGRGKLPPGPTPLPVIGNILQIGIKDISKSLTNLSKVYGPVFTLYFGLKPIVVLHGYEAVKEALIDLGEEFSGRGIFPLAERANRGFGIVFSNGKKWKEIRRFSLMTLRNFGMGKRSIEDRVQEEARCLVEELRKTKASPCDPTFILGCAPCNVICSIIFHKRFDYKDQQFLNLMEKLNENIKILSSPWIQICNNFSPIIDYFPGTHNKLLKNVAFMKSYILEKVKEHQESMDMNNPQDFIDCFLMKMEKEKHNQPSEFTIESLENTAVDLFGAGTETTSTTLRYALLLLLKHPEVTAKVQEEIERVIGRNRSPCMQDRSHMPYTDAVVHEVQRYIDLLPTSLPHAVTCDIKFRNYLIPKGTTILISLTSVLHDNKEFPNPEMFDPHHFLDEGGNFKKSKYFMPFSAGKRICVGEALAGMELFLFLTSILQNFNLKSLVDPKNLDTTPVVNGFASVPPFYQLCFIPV

[7] = molecular target: Voltage-gated inwardly rectifying potassium channel KCNH2 (Homo sapiens, UniProt Q12809); assay: Inhibition of human ERG
Sequence of Voltage-gated inwardly rectifying potassium channel KCNH2 (Q12809 whole entry): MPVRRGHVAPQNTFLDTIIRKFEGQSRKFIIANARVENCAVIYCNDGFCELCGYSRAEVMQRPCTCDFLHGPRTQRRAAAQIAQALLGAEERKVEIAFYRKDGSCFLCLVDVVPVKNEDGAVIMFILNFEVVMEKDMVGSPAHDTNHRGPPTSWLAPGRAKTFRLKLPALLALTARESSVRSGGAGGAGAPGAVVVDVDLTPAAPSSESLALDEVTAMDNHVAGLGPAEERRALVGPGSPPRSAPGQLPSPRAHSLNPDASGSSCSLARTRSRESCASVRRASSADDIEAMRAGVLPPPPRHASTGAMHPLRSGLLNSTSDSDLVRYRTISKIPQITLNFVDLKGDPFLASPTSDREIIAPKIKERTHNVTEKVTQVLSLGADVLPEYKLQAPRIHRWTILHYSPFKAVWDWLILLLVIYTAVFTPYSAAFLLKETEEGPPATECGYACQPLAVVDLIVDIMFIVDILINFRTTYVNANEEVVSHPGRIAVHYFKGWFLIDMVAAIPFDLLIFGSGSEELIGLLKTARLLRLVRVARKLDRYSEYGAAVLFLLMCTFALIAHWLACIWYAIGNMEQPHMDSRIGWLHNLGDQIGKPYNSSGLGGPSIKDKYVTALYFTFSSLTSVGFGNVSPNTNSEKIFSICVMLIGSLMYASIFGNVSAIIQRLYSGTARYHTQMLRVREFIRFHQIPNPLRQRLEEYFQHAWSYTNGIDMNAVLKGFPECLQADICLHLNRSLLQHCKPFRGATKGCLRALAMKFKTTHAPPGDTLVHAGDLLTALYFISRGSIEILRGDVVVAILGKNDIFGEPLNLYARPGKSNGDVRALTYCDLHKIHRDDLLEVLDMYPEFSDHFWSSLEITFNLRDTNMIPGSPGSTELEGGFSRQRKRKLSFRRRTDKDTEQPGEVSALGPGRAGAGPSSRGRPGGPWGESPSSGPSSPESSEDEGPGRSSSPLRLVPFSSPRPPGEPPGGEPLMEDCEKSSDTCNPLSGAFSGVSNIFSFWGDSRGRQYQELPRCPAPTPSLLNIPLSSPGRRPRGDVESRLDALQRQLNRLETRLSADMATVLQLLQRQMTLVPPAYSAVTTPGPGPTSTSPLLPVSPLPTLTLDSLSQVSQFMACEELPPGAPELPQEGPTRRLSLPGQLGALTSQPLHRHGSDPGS

[8] = system: Mus musculus; assay: Antidiabetic activity in ob/ob mouse assessed as increase in mean insulin level at 10 umol/kg, po measured after 15 mins of glucose challenge by oral glucose tolerance test; format: functional
[9] = system: Mus musculus; assay: Antidiabetic activity in ob/ob mouse assessed as increase in mean insulin level at 3 umol/kg, po measured after 15 mins of glucose challenge by oral glucose tolerance test; format: functional

Sequence of Dipeptidyl peptidase 8 (Q6V1X1 whole entry): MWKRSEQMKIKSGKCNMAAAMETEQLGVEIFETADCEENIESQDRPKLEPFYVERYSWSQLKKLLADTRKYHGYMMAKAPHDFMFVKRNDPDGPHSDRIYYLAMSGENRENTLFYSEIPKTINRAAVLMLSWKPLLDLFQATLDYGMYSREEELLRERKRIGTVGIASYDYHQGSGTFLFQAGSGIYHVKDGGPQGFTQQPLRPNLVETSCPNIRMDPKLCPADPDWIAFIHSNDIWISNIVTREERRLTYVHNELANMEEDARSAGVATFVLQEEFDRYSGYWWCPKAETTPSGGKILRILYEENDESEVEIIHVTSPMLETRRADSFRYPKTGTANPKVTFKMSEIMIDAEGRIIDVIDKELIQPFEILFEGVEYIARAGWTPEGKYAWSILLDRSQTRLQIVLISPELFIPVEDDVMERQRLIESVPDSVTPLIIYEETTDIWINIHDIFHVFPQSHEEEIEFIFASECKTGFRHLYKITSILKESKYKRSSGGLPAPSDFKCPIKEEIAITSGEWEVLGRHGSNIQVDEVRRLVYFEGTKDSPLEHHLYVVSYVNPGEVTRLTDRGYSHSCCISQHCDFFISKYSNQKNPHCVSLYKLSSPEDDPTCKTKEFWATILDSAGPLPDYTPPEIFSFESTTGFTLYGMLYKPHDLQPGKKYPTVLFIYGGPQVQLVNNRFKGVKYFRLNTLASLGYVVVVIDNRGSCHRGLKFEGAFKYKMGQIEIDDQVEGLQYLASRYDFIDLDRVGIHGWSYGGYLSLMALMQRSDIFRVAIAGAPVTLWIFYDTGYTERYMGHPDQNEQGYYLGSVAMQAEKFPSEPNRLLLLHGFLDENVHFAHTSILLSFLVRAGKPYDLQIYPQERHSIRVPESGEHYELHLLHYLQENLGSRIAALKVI
Sequence of Dipeptidyl peptidase 9 (Q86TI2 whole entry): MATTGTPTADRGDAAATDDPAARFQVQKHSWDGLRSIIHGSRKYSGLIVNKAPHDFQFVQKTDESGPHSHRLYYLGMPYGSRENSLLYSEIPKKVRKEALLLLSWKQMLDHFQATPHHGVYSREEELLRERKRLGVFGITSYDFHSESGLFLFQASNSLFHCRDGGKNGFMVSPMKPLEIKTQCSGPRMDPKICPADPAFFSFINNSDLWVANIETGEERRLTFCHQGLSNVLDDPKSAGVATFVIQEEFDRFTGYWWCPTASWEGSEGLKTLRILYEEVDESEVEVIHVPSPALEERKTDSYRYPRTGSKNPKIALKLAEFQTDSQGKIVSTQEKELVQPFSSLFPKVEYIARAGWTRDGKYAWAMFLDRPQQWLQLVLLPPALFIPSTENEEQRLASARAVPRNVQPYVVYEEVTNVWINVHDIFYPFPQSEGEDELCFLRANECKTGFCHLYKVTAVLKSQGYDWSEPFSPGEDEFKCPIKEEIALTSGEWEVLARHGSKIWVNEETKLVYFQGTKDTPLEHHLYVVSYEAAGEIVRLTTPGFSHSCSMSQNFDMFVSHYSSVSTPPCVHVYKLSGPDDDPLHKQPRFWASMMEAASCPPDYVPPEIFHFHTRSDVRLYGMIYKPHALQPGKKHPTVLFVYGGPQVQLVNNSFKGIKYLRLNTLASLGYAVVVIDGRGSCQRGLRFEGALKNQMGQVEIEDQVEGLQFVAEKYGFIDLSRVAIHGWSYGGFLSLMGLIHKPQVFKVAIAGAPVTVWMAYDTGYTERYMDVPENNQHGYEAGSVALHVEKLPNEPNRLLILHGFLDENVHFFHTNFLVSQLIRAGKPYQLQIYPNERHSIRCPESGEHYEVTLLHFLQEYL
Sequence of Cytochrome P450 3A4 (P08684 whole entry): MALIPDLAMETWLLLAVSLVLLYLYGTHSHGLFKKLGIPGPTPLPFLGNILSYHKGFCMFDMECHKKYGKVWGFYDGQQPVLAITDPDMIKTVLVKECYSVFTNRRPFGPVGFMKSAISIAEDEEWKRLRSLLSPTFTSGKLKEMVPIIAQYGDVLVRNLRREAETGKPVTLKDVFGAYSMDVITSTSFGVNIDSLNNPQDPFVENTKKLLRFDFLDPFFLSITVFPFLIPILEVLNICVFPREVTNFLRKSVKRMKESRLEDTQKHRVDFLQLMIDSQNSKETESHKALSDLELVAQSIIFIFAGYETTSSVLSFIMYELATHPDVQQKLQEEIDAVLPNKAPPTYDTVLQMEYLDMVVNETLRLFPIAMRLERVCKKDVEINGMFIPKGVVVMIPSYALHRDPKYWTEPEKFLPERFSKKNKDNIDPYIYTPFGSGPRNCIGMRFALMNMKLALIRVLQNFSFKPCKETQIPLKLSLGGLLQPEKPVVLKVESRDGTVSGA

## COc1ccccc1-c1cn2c(-c3ccc(Cl)cc3Cl)c(CN)c(C)nc2n1
[1]
  pKi: < 5.00

## Cc1cc2nc(C)c(CN)c(-c3ccc(Cl)cc3Cl)n2n1
[2]
  pKi: < 4.52
[1]
  pKi: < 4.52

## Cc1nc2c(-c3ccccc3)cnn2c(-c2ccc(Cl)cc2Cl)c1CN
[2]
  pKi: < 4.52
[1]
  pKi: < 4.52

## Cc1nc2cc(-c3ccccc3)nn2c(-c2ccc(Cl)cc2Cl)c1CN
[3]
  pIC50: 6.00
[2]
  pKi: < 4.52
[4]
  IC50: 6 µM
[1]
  pKi: < 4.70
[5]
  pIC50: 5.52
[6]
  pIC50: 4.92
[7]
  inhibition (INH): 95%

## CCC(=O)c1cnn2c(-c3ccc(Cl)cc3Cl)c(CN)c(C)nc12
[2]
  pKi: < 4.52
[1]
  pKi: < 4.52

## Cc1nc2cc(-c3ccco3)nn2c(-c2ccc(Cl)cc2Cl)c1CN
[2]
  pKi: < 4.52
[1]
  pKi: < 4.52

## Cc1nc2cc(-c3ccc(Cl)cc3)nn2c(-c2ccc(Cl)cc2Cl)c1CN
[1]
  pKi: < 4.52

## Cc1ccc(-c2cc3nc(C)c(CN)c(-c4ccc(Cl)cc4Cl)n3n2)cc1
[2]
  pKi: < 4.52
[1]
  pKi: < 5.00

## Cc1nc2nc(C)c(CN)c(-c3ccc(Cl)cc3Cl)n2n1
[2]
  pKi: < 4.52
[1]
  pKi: < 4.52

## Cc1nc2nc(-c3ccccc3)nn2c(-c2ccc(Cl)cc2Cl)c1CN
[2]
  pKi: < 4.52
[1]
  pKi: < 4.52
[7]
  inhibition (INH): 85%

## COC(=O)c1nc2nc(C)c(CN)c(-c3ccc(Cl)cc3Cl)n2n1
[2]
  pKi: < 4.52
[1]
  pKi: < 4.52

## Cc1nc2nc(C(=O)Nc3ccccc3)nn2c(-c2ccc(Cl)cc2Cl)c1CN
[1]
  pKi: < 5.00

## CCN(CC)c1nc2nc(C)c(CN)c(-c3ccc(Cl)cc3Cl)n2n1
[2]
  pKi: < 4.52
[1]
  pKi: < 4.52

## CCN(C)c1nc2nc(C)c(CN)c(-c3ccc(Cl)cc3Cl)n2n1
[2]
  pKi: < 4.52
[1]
  pKi: < 4.52

## COCCN(C)c1nc2nc(C)c(CN)c(-c3ccc(Cl)cc3Cl)n2n1
[1]
  pKi: < 4.52

## Cc1nc2nc(N3CCCC3)nn2c(-c2ccc(Cl)cc2Cl)c1CN
[2]
  pKi: < 5.00
[1]
  pKi: < 4.52

## Cc1nc2nc(N3CCOCC3)nn2c(-c2ccc(Cl)cc2Cl)c1CN
[1]
  pKi: < 4.52

## Cc1nc2nc(N3CCSCC3)nn2c(-c2ccc(Cl)cc2Cl)c1CN
[2]
  pKi: < 4.52
[1]
  pKi: < 4.52

## Cc1nc2nc(N3CCN(C(=O)OC(C)(C)C)CC3)nn2c(-c2ccc(Cl)cc2Cl)c1CN
[2]
  pKi: < 4.52
[1]
  pKi: < 4.52

## Cc1nc2nc(N3CCNCC3)nn2c(-c2ccc(Cl)cc2Cl)c1CN
[2]
  pKi: < 4.52
[1]
  pKi: < 4.52

## Cc1nc2nccn2c(-c2ccc(Cl)cc2Cl)c1CN
[2]
  pKi: < 4.52
[1]
  pKi: < 4.52

## Cc1nc2nc(-c3ccccc3)cn2c(-c2ccc(Cl)cc2Cl)c1CN
[3]
  pIC50: 6.00
[8]
  Activity: 74%
[2]
  pKi: < 4.52
[4]; read-out: IC50
  pIC50: 4.72
[1]
  pKi: < 4.52
[5]
  pIC50: 4.89
[6]
  pIC50: < 4.40
[9]
  Activity: 51%
[7]
  inhibition (INH): 74%
